In patent US6117886A, “Tetrazole derivatives” (Kowa Co., Ltd., priority 1997, dated 2000):
Structures can show the parent of a compound that is named as a salt.

Key:
[1] = target: T1, H1 Receptor (Cavia porcellus, UniProt P31389); assay: H1 Receptor Binding Inhibitory Test; set-up: species or system guinea pig
T1 construct: guinea pig cerebral membrane protein; from tissue; host or cells: guinea pig cerebral membranes
Experimental: Reaction was stopped by addition of ice-cold phosphate buffer, and immediately thereafter, the reaction mixture was filtered by use of a Wattman CF/C filter. The filter was washed twice, each time with 20 ml ice-cold buffer. Radioactivity of the residue was measured by use of a liquid scintillation counter. From the value as obtained when a test compound was not added and values as obtained when the test compound was added at different concentrations, there was determined a dose-response curve representing suppression action of the test compound, from which a 50% inhibitory concentration (IC50) was obtained. Based on the IC50 value and by use of the Cheng-Prusoff equation, a dissociation constant (KD) was calculated (Table 9). In a saturation test, 10^-4 M R(-)-dimetindene was used for the measurement of the amount of non-specific binding.

[2] = target: T2, LTD4 Receptor (Cavia porcellus, UniProt Q2NNR5); assay: LTD4 Receptor Binding Inhibitory Test; set-up: species or system guinea pig
T2 construct: guinea pig lung protein; from tissue; host or cells: guinea pig lung
T2 sequence (Q2NNR5 1-340): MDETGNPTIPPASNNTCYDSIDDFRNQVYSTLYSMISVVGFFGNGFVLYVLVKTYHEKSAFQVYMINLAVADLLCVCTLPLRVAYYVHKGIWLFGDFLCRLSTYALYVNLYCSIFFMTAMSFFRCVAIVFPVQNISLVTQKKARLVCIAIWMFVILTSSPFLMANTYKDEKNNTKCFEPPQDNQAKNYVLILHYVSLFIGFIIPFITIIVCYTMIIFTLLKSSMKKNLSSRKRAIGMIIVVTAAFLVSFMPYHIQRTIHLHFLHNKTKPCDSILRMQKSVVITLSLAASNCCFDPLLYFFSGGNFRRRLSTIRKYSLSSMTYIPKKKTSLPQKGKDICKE
Experimental: Reaction was stopped by addition of ice-cold Tris-HCl/NaCl (10 mM/100 mM, pH 7.5) buffer, and immediately thereafter, the reaction mixture was filtered by use of a Wattman CF/C filter. The filter was washed twice, each time with 20 ml ice-cold buffer. Radioactivity of the residue was measured by use of a liquid scintillation counter. […] In a saturation test, 2 μM leukotriene D4 was used for the measurement of the amount of non-specific binding.

[3] = target: guinea pig ileum, contraction in response to histamine (Cavia porcellus, UniProt P31389); assay: Antihistaminic action, in vitro test on isolated ileum (contraction in response to histamine); conditions: 10^-8 to 10^-4 M histamine dose-response curve, 30 min after test compound, 29° C; for Kb: read-out: Anti-histaminic action, pA2 (converted)
Sequence of guinea pig ileum, contraction in response to histamine (P31389 whole entry): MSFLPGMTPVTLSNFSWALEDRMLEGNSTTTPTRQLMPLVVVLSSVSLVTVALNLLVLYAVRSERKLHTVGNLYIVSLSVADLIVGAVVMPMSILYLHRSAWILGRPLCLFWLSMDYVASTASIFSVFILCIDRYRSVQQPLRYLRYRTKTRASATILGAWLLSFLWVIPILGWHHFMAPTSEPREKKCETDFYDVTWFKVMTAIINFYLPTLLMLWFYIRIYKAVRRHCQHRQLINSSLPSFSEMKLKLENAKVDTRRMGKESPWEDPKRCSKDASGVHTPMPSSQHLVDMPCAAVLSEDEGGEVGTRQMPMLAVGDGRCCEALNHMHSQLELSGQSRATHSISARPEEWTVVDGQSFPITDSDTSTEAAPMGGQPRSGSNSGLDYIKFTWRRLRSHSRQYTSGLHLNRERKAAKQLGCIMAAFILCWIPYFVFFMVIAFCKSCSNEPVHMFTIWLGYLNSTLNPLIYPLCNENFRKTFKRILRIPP

[4] = system: guinea pig ileum, contraction induced with LTD4; assay: Antileukotriene action, in vitro test on isolated ileum (contraction induced with LTD4); conditions: contraction induced with 10^-8 M LTD4; 29° C; read-out: Anti-LTD4 action IC50

T1 sequence (P31389 whole entry): as above

`Cn1c(COc2cccc(Cn3nnc(-c4cc5ccccc5[nH]c4=O)n3)c2)nc2ccccc21` [Example 8, 3-{2-[3-(N-Methylbenzimidazol-2-ylmethoxy)benzyl]tetrazolyl}quinolin-2-one] showed a Kd [1] of 9380 nM and a Kd [2] of 143 nM.
In the case of `O=c1[nH]c2ccc(O)cc2cc1-c1nnn(Cc2ccc(OCc3ccc4ccccc4n3)cc2)n1` [Example 22, 6-Hydroxy-3-{2-[4-(2-quinolylmethoxy)benzyl]-tetrazolyl}quinolin-2-one], the Kd [1] is reported as 30100 nM and the Kd [2] is reported as 364 nM.
With `COc1ccc2c(c1)cc(-c1nnn(Cc3cccc(OCc4ccc5ccccc5n4)c3)n1)c(=O)n2CCN(C)C` [Example 41, 1-Dimethylaminoethyl-6-methoxy-3-{2-[3-(2-quinolylmethoxy)benzyl]tetrazolyl}quinolin-2-one] the “Anti-histaminic action, pD'2” value [3] was 5.58.
Work on `COc1ccc2c(c1)cc(-c1nnn(Cc3cccc(OCc4ccc5ccccc5n4)c3)n1)c(=O)n2CCCN1CCN(Cc2ccc3ccccc3n2)CC1` [Example 45, 1-{3-[4-(2-quinolylmethyl)-1-piperazinyl]propyl}-6-methoxy-3-(2-[3-(2-quinolylmethoxy)benzyl]tetrazolyl)quinolin-2-one dihydrochloride] yielded an IC50 [4] of 640 nM and a Kb [3] of 21.9 nM.
`COc1ccc2c(c1)cc(-c1nnn(Cc3cccc(OCc4ccc5ccccc5n4)c3)n1)c(=O)n2CCCCN1CCN(Cc2ccc3ccccc3n2)CC1` [Example 47, 6-Methoxy-1-{4-[4-(2-quinolylmethyl)-piperazinyl]butyl}-3-{2-[3-(2-quinolylmethoxy)benzyl]tetrazolyl}quinolin-2-one dimalate] gave a Kb [3] of 20 nM.
`Cn1c(COc2cccc(Cn3nnnc3-c3cc4ccccc4[nH]c3=O)c2)nc2ccccc21` [Example 9, 3-{1-[3-(N-Methylbenzimidazol-2-ylmethoxy)benzyl]tetrazolyl}quinolin-2-one] gave a Kd [1] of 13700 nM and a Kd [2] of 320 nM.
For `COc1ccc2c(c1)cc(-c1nnn(Cc3cccc(OCc4ccc5ccccc5n4)c3)n1)c(=O)n2C` [Example 38, 6-methoxy-1-methyl-3-{2-[3-(2-quinolylmethoxy)benzyl]tetrazolyl}quinolin-2-one], the IC50 [4] was 160 nM and the “Anti-histaminic action, pD'2” value [3] was 5.52.
`CN1CCN(CCCOc2ccc3c(c2)cc(-c2nnn(Cc4cccc(OCc5ccc6ccccc6n5)c4)n2)c(=O)n3C)CC1` [Example 52, 1-methyl-6-[3-(4-metylpiperazinyl)propyl]oxy-3-{2-[3-(2-quinolylmethoxy)benzyl]tetrazolyl}quinolin-2-one trihydrochloride] was tested, and the IC50 [4] was 1300 nM and the Kb [3] was 912 nM.
With `CC(C)(C)c1ccc2[nH]c(=O)c(-c3nnnn3Cc3cccc(OCc4ccc5ccccc5n4)c3)cc2c1` [Example 18, 6-tert-Butyl-3-{1-[3-(2-quinolylmethoxy)-benzyl]tetrazolyl}quinolin-2-one] the Kd [1] was 22800 nM and the Kd [2] was 509 nM.
With `COc1ccc2[nH]c(=O)c(-c3nnnn3Cc3cccc(OCc4ccc5ccccc5n4)c3)cc2c1` [Example 2, 6-methoxy-3-{1-[3-(2-quinolylmethoxy)benzyl]tetrazolyl}quinolin-2-one] the IC50 [4] was 250 nM and the Kb [3] was 4170 nM.
With `CN(C)CCn1c(=O)c(-c2nnnn2Cc2cccc(OCc3ccc4ccccc4n3)c2)cc2cc(O)ccc21` [Example 40, 1-Dimethylaminoethyl-6-hydroxy-3-{1-[3-(2-quinolylmethoxy)benzyl]tetrazolyl}quinolin-2-one] the Kb [3] was 251 nM.
In the case of `O=c1[nH]c2ccc(O)cc2cc1-c1nnnn1Cc1cccc(OCc2ccc3ccccc3n2)c1` [Example 29, 6-Hydroxy-3-{1-[3-(2-quinolylmethoxy)benzyl]-tetrazolyl}quinolin-2-one], the Kd [1] is reported as 57200 nM and the Kd [2] is reported as 13.6 nM.
`COc1ccc2[nH]c(=O)c(-c3nnnn3Cc3ccc(OCc4ccc5ccccc5n4)cc3)cc2c1` [Example 25, 6-Methoxy-3-{1-[4-(2-quinolylmethoxy)benzyl]-tetrazolyl}quinolin-2-one] was tested, and the Kd [1] was 13900 nM and the Kd [2] was 5.86 nM.
`CC(=O)Oc1ccc2[nH]c(=O)c(-c3nnn(Cc4cccc(OCc5ccc6ccccc6n5)c4)n3)cc2c1` [Example 58, 6-Acetoxy-3-{2-[3-(2-quinolylmethoxy)benzyl]-tetrazolyl}quinolin-2-one] was tested, and the Kd [1] was 480000 nM and the Kd [2] was 38.2 nM.
`NCC(=O)Oc1ccc2[nH]c(=O)c(-c3nnn(Cc4cccc(OCc5ccc6ccccc6n5)c4)n3)cc2c1` [Example 64, 6-Glycyloxy-3-{2-[3-(2-quinolylmethoxy)-benzyl]tetrazolyl}quinolin-2-one] showed a Kd [1] of 61900 nM and a Kd [2] of 22.1 nM.
Work on `O=c1[nH]c2ccccc2cc1-c1nnn(Cc2cccc(OCc3ccc4ccccc4n3)c2)n1` [Example 26, 3-{2-[3-(2-Quinolylmethoxy)benzyl]-tetrazolyl}quinolin-2-one] yielded an IC50 [4] of 179 nM, a Kd [1] of 89500 nM and a Kd [2] of 179 nM. For the same compound, the “Anti-histaminic action, pD'2” value [3] was 5.24.
Compound `COc1ccc2c(c1)cc(-c1nnn(Cc3cccc(OCc4ccc5ccccc5n4)c3)n1)c(=O)n2CCCN1CCN(Cc2ccccn2)CC1` [Example 48, 6-Methoxy-1-{3-[4-(2-pyridylmethyl)-piperazinyl]propyl}-3-{2-[3-(2-quinolylmethoxy)benzyl]tetrazolyl}quinolin-2-one dihydrochloride] has a Kb [3] of 115 nM.
Work on `CN(C)CCn1c(=O)c(-c2nnn(Cc3cccc(OCc4ccc5ccccc5n4)c3)n2)cc2cc(O)ccc21` [Example 39, 1-Dimethylaminoethyl-6-hydroxy-3-{2-[3-(2-quinolylmethoxy)benzyl]tetrazolyl}quinolin-2-one] yielded a Kb [3] of 30.2 nM.
In the case of `O=c1[nH]c2ccc(O)cc2cc1-c1nnn(Cc2cccc(OCc3ccc4ccccc4n3)c2)n1` [Example 28, 6-Hydroxy-3-{2-[3-(2-quinolylmethoxy)benzyl]-tetrazolyl}quinolin-2-one], the Kd [1] is reported as 13900 nM and the Kd [2] is reported as 21 nM.
In the case of `CN(C)CCCn1c(=O)c(-c2nnn(Cc3cccc(OCc4ccc5ccccc5n4)c3)n2)cc2cc(O)ccc21` [Example 42, 1-Dimethylaminopropyl-6-hydroxy-3-{2-[3-(2-quinolylmethoxy)benzyl]tetrazolyl}quinolin-2-one], the Kb [3] is reported as 55 nM.
With `CC(=O)Oc1ccc2[nH]c(=O)c(-c3nnn(Cc4ccc(OCc5ccc6ccccc6n5)cc4)n3)cc2c1` [Example 56, 6-Acetoxy-3-{2-[4-(2-quinolylmethoxy)benzyl]-tetrazolyl}quinolin-2-one] the Kd [1] was 84700 nM and the Kd [2] was 336 nM.
`CCOCCn1c(COc2ccc(Cn3nnc(-c4cc5cc(OC)ccc5[nH]c4=O)n3)cc2)nc2ccccc21` [Example 6, 3-{2-{4-[N-(2-Ethoxyethyl)benzimidazol-2-ylmethoxy]benzyl}tetrazolyl}-6-methoxyquinolin-2-one] was tested, and the IC50 [4] was 1100 nM, the Kd [1] was 3290 nM and the Kd [2] was 8110 nM. The Kb [3] was 40.7 nM.
Work on `COc1ccc2[nH]c(=O)c(-c3nnn(Cc4cccc(OCc5ccc6ccccc6n5)c4)n3)cc2c1` [Example 1, 6-methoxy-3-{2-[3-(2-quinolylmethoxy)benzyl]tetrazolyl}quinolin-2-one] yielded an IC50 [4] of 90 nM, a Kd [1] of 2960 nM and a Kd [2] of 114 nM. The “Anti-histaminic action, pD'2” value [3] was 5.53.
`COc1ccc2[nH]c(=O)c(-c3nnn(Cc4ccc(OCc5ccc6ccccc6n5)cc4)n3)cc2c1` [Example 24, 6-Methoxy-3-{2-[4-(2-quinolylmethoxy)benzyl]-tetrazolyl}quinolin-2-one] gave a Kd [1] of 9510 nM and a Kd [2] of 205 nM.
With `CN(C)CCn1c(=O)c(-c2nnn(Cc3cccc(C=Cc4ccc5ccccc5n4)c3)n2)cc2cc(O)ccc21` [Example 43, 1-Dimethylaminoethyl-6-hydroxy-3-{2-[3-(2-quinolylethenyl)benzyl]tetrazolyl}quinolin-2-one] the Kb [3] was 174 nM.
